In patent US11407781B2, “Equatorially modified polymer linked multimers of guanosine-3′, 5′-cyclic monophosphates” (GRAYBUG VISION, INC., priority 2016, dated 2022):

Assay: Determination of lipophilicity by RP-18 HPLC retention (log k′g)
Type: physicochemical
Details: RP-18 reversed phase HPLC, gradient elution, ion pair chromatography with triethylammonium cation
From the text: Lipophilicity information is thus often only obtained by fragment analysis and corresponding calculations.
An established HPLC method, which is based on retention data on RP-18 reversed phase silica during gradient elution, was used for the determination of lipohilicity.
Instead of log P the method yields the descriptor log k′g, ranking analytes according to their lipophilicity on a logarithmic scale as well. Since charged molecules such as cyclic nucleotides have only hardly any retention on reversed phases, ion pair chromatography with the lipophilic triethylammonium cation is used.

CC(C)c1ccc(Sc2nc3c(=O)n4cc(-c5ccccc5)[nH]c4nc3n2[C@@H]2O[C@@H]3CO[P@@](=O)(S)O[C@H]3[C@H]2O)cc1 (single isomer, unassigned) [Compound 35, 8-(4-Isopropylphenylthio)-β-phenyl-1,N^2-ethenoguanosine-3′,5′-cyclic monophosphorothioate, Rp-isomer]
log k′g: 3.815
